Experiments:
[1] = molecular target: GRPR expressed in breast, prostate, and Gastro Intestinal Stromal Tumor (GIST) (Homo sapiens, UniProt P30550); details: non-clinical models; cited from earlier work
GRPR = GRPR (Homo sapiens, UniProt P30550); details: non-clinical models; cited from earlier work
[2] = Radiochemical purity (RCP) stability of 177Lu-NeoB drug product formulations over shelf life (72 h), lab-scale batches; type: physicochemical; details: Table 7: gentisic acid 1000 μg/mL, ascorbic acid 15000 μg/mL, Kolliphor HS 15 100 μg/mL, about 200 mCi, 10 mCi/mL; end of shelf life (72 hours)
Method: “Radiochemical purity”: is that percentage of the stated radionuclide that is present in the stated chemical or biological form. Radiochromatography methods, such as HPLC method or instant Thin Layer Chromatography method (ITLC), are the most commonly accepted methods for determining radiochemical purity in the nuclear pharmacy.
The stability of the ^177Lu-labelled product over 72 hours with the same antioxidant amount present in the Lutathera formulation. In particular, the following conditions are reproduced: […] step; • Kolliphor HS 15:1 mg added before the labelling step; • Peptide: Lu ratio≥1.5; […] during the formulation step; • Final volumetric Activity 10 mCi/mL; • Final pH 4-6; • Reaction buffer: Acetic acid/acetate buffer;
The radiolabelling tests are carried out both manually and automatically by using the MiniAlO synthesizer. The synthesis procedure is developed as follows: • 1. Transferring of ^177LuCl3 into reactor; • 2. Transferring of the reaction buffer into reactor. The reaction buffer is composed of sodium acetate buffer and gentisic acid. The acetate buffer allows to maintain the labelling pH between 4-5, while the gentisic acid protects the peptide from radiolysis during the labelling step; • 3. Addition of the NeoB1 solution containing Kolliphor HS 15 into reactor; • 4. Heating at 95° C. for 5 minutes; […]

GRPR, sequence (P30550 whole entry): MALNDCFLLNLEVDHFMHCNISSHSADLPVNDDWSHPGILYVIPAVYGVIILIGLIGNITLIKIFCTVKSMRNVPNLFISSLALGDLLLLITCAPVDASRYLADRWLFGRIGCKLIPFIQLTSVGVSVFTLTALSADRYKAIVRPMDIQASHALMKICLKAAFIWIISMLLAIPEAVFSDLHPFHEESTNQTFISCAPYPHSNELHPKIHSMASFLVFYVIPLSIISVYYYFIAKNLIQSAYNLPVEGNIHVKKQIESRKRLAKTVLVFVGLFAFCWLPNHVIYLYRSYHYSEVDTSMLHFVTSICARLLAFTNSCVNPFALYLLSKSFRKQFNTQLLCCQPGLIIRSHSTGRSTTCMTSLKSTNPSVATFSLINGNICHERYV
GRPR expressed in breast, prostate, and Gastro Intestinal Stromal Tumor (GIST), sequence (P30550 whole entry): as above

| SMILES | affinity to the GRPR [1] | degree of internalization upon binding to the specific receptor (GRPR) | Radiochemical purity (%) at end of shelf life [2] |
| --- | --- | --- | --- |
| CC(C)CC(CC(C)C)NC(=O)[C@H](Cc1cnc[nH]1)NC(=O)CNC(=O)[C@@H](NC(=O)[C@H](C)NC(=O)[C@H](Cc1c[nH]c2ccccc12)NC(=O)[C@H](CCC(N)=O)NC(=O)[C@@H](Cc1ccccc1)NC(=O)COCC(=O)Nc1ccc(CNC(=O)CN2CCN(CC(=O)O)CCN(CC(=O)O)CCN(CC(=O)O)CC2)cc1)C(C)C [[^68Ga]-NeoB, metal not drawn] | high affinity | low degree of internalization | – |
| CC(C)CC(CC(C)C)NC(=O)[C@H](Cc1cnc[nH]1)NC(=O)CNC(=O)[C@@H](NC(=O)[C@H](C)NC(=O)[C@H](Cc1c[nH]c2ccccc12)NC(=O)[C@H](CCC(N)=O)NC(=O)[C@@H](Cc1ccccc1)NC(=O)COCC(=O)Nc1ccc(CNC(=O)CN2CCN(CC(=O)O)CCN(CC(=O)O)CCN(CC(=O)O)CC2)cc1)C(C)C [[^177Lu]-NeoB, metal not drawn] | – | – | over 95% |

Reference: patent US12685790B2, “Stable, concentrated radiopharmaceutical composition” (NOVARTIS AG, priority 2019, dated 2026)
